Measurements from the supplement of paper PMC10307832.

Assays:
Assay in all cases: relative viability (nuclei count vs DMSO), 5 days (fraction); higher = more cells survive
LCLC-97TM1 = test system: LCLC-97TM1
Method in brief: (§1)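 Values are medians from duplicate plates. Each reflects relative viability, defined as the nuclei count of treated wells over that of vehicle wells. Lung cancer cell lines in 1536-well plates were pin-tool dosed one day after seeding with one drug alone or with a fixed anchor-drug dose plus five library-drug doses (not always all listed) in √10 steps, then fixed, stained and imaged at 4× after 5 days.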

NCI-H1993 = test system: NCI-H1993
Method in brief: as §1

NCI-H1650 = test system: NCI-H1650
Method in brief: as §1

LXF-289 = test system: LXF-289
Method in brief: as §1

NCI-H2228 = test system: NCI-H2228
Method in brief: as §1

LK-2 = test system: LK-2
Method in brief: as §1

SW 1573 = test system: SW 1573
Method in brief: as §1

LU99A = test system: LU99A
Method in brief: as §1

NCI-H2405 = test system: NCI-H2405
Method in brief: as §1

ChaGo-K-1 = test system: ChaGo-K-1
Method in brief: as §1

HCC-827 = test system: HCC-827
Method in brief: as §1

H3255 = test system: H3255
Method in brief: as §1

NCI-H3122 = test system: NCI-H3122
Method in brief: as §1

EPLC-272H = test system: EPLC-272H
Method in brief: as §1

NCI-H1355 = test system: NCI-H1355
Method in brief: as §1

HOP-62 = test system: HOP-62
Method in brief: as §1

NCI-H441 = test system: NCI-H441
Method in brief: as §1

SK-LU-1 = test system: SK-LU-1
Method in brief: as §1

PC-3 [JPC-3] = test system: PC-3 [JPC-3]
Method in brief: as §1

EKVX = test system: EKVX
Method in brief: as §1

UMC-11 = test system: UMC-11
Method in brief: as §1

NCI-H2170 = test system: NCI-H2170
Method in brief: as §1

SMILES: Cc1csc(=NC2CCCCC2)n1/N=C/c1ccc(O)c(O)c1O [MIM1] + CC1(C)CCC(c2ccc(Cl)cc2)=C(CN2CCN(c3ccc(C(=O)NS(=O)(=O)c4ccc(N[C@H](CCN5CCOCC5)CSc5ccccc5)c(S(=O)(=O)C(F)(F)F)c4)cc3)CC2)C1 [Navitoclax] (partner 0.5 µM)
- relative viability (LCLC-97TM1; first compound 0.2 µM): 0.567
- relative viability (LCLC-97TM1; first compound 0.6325 µM): 0.398
- relative viability (LCLC-97TM1; first compound 2 µM): 0.397
- relative viability (LCLC-97TM1; first compound 6.325 µM): 0.48
- relative viability (LCLC-97TM1; first compound 20 µM): 0.203
- relative viability (NCI-H1993; first compound 0.2 µM): 0.911
- relative viability (NCI-H1993; first compound 0.6325 µM): 0.951
- relative viability (NCI-H1993; first compound 2 µM): 0.854
- relative viability (NCI-H1993; first compound 6.325 µM): 0.822
- relative viability (NCI-H1993; first compound 20 µM): 0.425
- relative viability (NCI-H1650; first compound 0.2 µM): 1.13
- relative viability (NCI-H1650; first compound 0.6325 µM): 1.18
- relative viability (NCI-H1650; first compound 2 µM): 0.693
- relative viability (NCI-H1650; first compound 6.325 µM): 0.452
- relative viability (NCI-H1650; first compound 20 µM): 0.202
- relative viability (LXF-289; first compound 0.2 µM): 0.921
- relative viability (LXF-289; first compound 0.6325 µM): 0.939
- relative viability (LXF-289; first compound 2 µM): 0.921
- relative viability (LXF-289; first compound 6.325 µM): 0.768
- relative viability (LXF-289; first compound 20 µM): 0.487
- relative viability (NCI-H2228; first compound 0.2 µM): 0.959
- relative viability (NCI-H2228; first compound 0.6325 µM): 0.916
- relative viability (NCI-H2228; first compound 2 µM): 0.874
- relative viability (NCI-H2228; first compound 6.325 µM): 0.274
- relative viability (NCI-H2228; first compound 20 µM): 0.157
- relative viability (LK-2; first compound 0.2 µM): 0.924
- relative viability (LK-2; first compound 0.6325 µM): 0.847
- relative viability (LK-2; first compound 2 µM): 0.657
- relative viability (LK-2; first compound 6.325 µM): 1.09
- relative viability (LK-2; first compound 20 µM): 0.209
- relative viability (SW 1573; first compound 0.2 µM): 0.973
- relative viability (SW 1573; first compound 0.6325 µM): 0.967
- relative viability (SW 1573; first compound 2 µM): 1.08
- relative viability (SW 1573; first compound 6.325 µM): 0.909
- relative viability (SW 1573; first compound 20 µM): 0.549
- relative viability (LU99A; first compound 0.2 µM): 0.931
- relative viability (LU99A; first compound 0.6325 µM): 0.817
- relative viability (LU99A; first compound 2 µM): 0.781
- relative viability (LU99A; first compound 6.325 µM): 0.836
- relative viability (LU99A; first compound 20 µM): 0.18
- relative viability (NCI-H2405; first compound 0.2 µM): 0.946
- relative viability (NCI-H2405; first compound 0.6325 µM): 0.999
- relative viability (NCI-H2405; first compound 2 µM): 0.884
- relative viability (NCI-H2405; first compound 6.325 µM): 0.798
- relative viability (NCI-H2405; first compound 20 µM): 0.35
- relative viability (ChaGo-K-1; first compound 0.2 µM): 1.14
- relative viability (ChaGo-K-1; first compound 0.6325 µM): 0.741
- relative viability (ChaGo-K-1; first compound 2 µM): 0.943
- relative viability (ChaGo-K-1; first compound 6.325 µM): 0.717
- relative viability (ChaGo-K-1; first compound 20 µM): 0.31
- relative viability (HCC-827; first compound 0.2 µM): 0.961
- relative viability (HCC-827; first compound 0.6325 µM): 1.01
- relative viability (HCC-827; first compound 2 µM): 0.977
- relative viability (HCC-827; first compound 6.325 µM): 0.39
- relative viability (HCC-827; first compound 20 µM): 0.696
- relative viability (H3255; first compound 0.2 µM): 0.561
- relative viability (H3255; first compound 0.6325 µM): 0.557
- relative viability (H3255; first compound 2 µM): 0.467
- relative viability (H3255; first compound 6.325 µM): 0.413
- relative viability (H3255; first compound 20 µM): 0.198
- relative viability (NCI-H3122; first compound 0.2 µM): 1.06
- relative viability (NCI-H3122; first compound 0.6325 µM): 1.09
- relative viability (NCI-H3122; first compound 2 µM): 1.1
- relative viability (NCI-H3122; first compound 6.325 µM): 0.761
- relative viability (NCI-H3122; first compound 20 µM): 0.426
- relative viability (EPLC-272H; first compound 0.2 µM): 1.11
- relative viability (EPLC-272H; first compound 0.6325 µM): 1.04
- relative viability (EPLC-272H; first compound 2 µM): 1.2
- relative viability (EPLC-272H; first compound 6.325 µM): 1
- relative viability (EPLC-272H; first compound 20 µM): 0.199
- relative viability (NCI-H1355; first compound 0.2 µM): 0.977
- relative viability (NCI-H1355; first compound 0.6325 µM): 1.03
- relative viability (NCI-H1355; first compound 2 µM): 1.07
- relative viability (NCI-H1355; first compound 6.325 µM): 0.793
- relative viability (NCI-H1355; first compound 20 µM): 0.95
- relative viability (HOP-62; first compound 0.2 µM): 1.11
- relative viability (HOP-62; first compound 0.6325 µM): 1.11
- relative viability (HOP-62; first compound 2 µM): 0.525
- relative viability (HOP-62; first compound 6.325 µM): 0.86
- relative viability (HOP-62; first compound 20 µM): 0.559
- relative viability (NCI-H441; first compound 0.2 µM): 0.58
- relative viability (NCI-H441; first compound 0.6325 µM): 0.912
- relative viability (NCI-H441; first compound 2 µM): 0.706
- relative viability (NCI-H441; first compound 6.325 µM): 0.577
- relative viability (NCI-H441; first compound 20 µM): 0.24
- relative viability (SK-LU-1; first compound 0.2 µM): 0.708
- relative viability (SK-LU-1; first compound 0.6325 µM): 0.78
- relative viability (SK-LU-1; first compound 2 µM): 0.957
- relative viability (SK-LU-1; first compound 6.325 µM): 0.824
- relative viability (SK-LU-1; first compound 20 µM): 0.841
- relative viability (PC-3 [JPC-3]; first compound 0.2 µM): 0.821
- relative viability (PC-3 [JPC-3]; first compound 0.6325 µM): 0.682
- relative viability (PC-3 [JPC-3]; first compound 2 µM): 0.897
- relative viability (PC-3 [JPC-3]; first compound 6.325 µM): 0.696
- relative viability (PC-3 [JPC-3]; first compound 20 µM): 0.531
- relative viability (EKVX; first compound 0.2 µM): 0.922
- relative viability (EKVX; first compound 0.6325 µM): 1.07
- relative viability (EKVX; first compound 2 µM): 0.965
- relative viability (EKVX; first compound 6.325 µM): 0.761
- relative viability (EKVX; first compound 20 µM): 0.293
- relative viability (UMC-11; first compound 0.2 µM): 0.32
- relative viability (UMC-11; first compound 0.6325 µM): 0.298
- relative viability (UMC-11; first compound 2 µM): 0.36
- relative viability (UMC-11; first compound 6.325 µM): 0.208
- relative viability (UMC-11; first compound 20 µM): 0.145
- relative viability (NCI-H2170; first compound 0.2 µM): 0.571
- relative viability (NCI-H2170; first compound 0.6325 µM): 0.636
- relative viability (NCI-H2170; first compound 2 µM): 0.549
- relative viability (NCI-H2170; first compound 6.325 µM): 0.468
- relative viability (NCI-H2170; first compound 20 µM): 0.298
